Where two headings read alike, the source gives them in different places.
How the values were obtained:
[1] = Table III, cited from earlier work
[2] = Partition in two-phase aqueous/organic solvent; format: physicochemical; conditions: heptane:aqueous partition of nonionized form
[3] = tested on: everted segments of rat ileum; assay: Influx of weak electrolytes into everted segments of rat ileum in vitro; conditions: for Influx Ileum: Table III; for Resistance Ileum Unstirred layer: Table V, calculated as d/DSc
[4] = tested on: everted segments of rat jejunum; assay: Influx of weak electrolytes into everted segments of rat jejunum in vitro; conditions: for Influx Jejunum: Table III; for Resistance Jejunum Unstirred layer: Table V, calculated as d/DSc; for Ratio of influx and nonionized concentration: J(1 + 10a)/C
[5] = tested on: everted segments of rat jejunum
[6] = tested on: everted segments of rat ileum
[7] = 1 mM, pH 7.40, 1 min, 37C, mean SE (n)
[8] = Table I, everted rat jejunum, 1 mM solution, second weak electrolyte (10 mM): Benzylamine
[9] = Table I, everted rat jejunum, 1 mM solution, second weak electrolyte (10 mM): Pentanoic acid
[10] = Table I, everted rat jejunum, 1 mM solution, second weak electrolyte (10 mM): c-Hexylamine
[11] = Table I, everted rat jejunum, 1 mM solution, second weak electrolyte (10 mM): Benzoic acid
[12] = 0.1 mM solution, observed influx increased by a factor of 10
[13] = Table II, everted segments (region not stated), pH 7.4

Row | Structure (SMILES) | Influx Ileum [3, 7] | Resistance Ileum Unstirred layer [3] | Influx Jejunum [4, 7] | Resistance Jejunum Unstirred layer [4] | also measured
1 | CC(C)N [2-Amino propane] | 4 nmol.100mg dry wt-1.min-1 | 1.54 cm-3.min.100 mg dry wt | 6 nmol.100mg dry wt-1.min-1 | 1.47 cm-3.min.100 mg dry wt | pKa ([1]; ref Ref. 6): 10.63; ratio of kni Hept values for 2-amino-propane and propionic acid [2]: greater than 20
2 | CC(=O)O [Acetic, acetic acid] | 3 nmol.100mg dry wt-1.min-1 | – | 0 nmol.100mg dry wt-1.min-1 | – | –
3 | O=C(O)c1ccccc1 [Benzoic, Benzoic acid] | 15 nmol.100mg dry wt-1.min-1 | – | 17 nmol.100mg dry wt-1.min-1 | – | Influx [4, 8]: 19 nmol.100mg dry wt-1.min-1; Influx [4, 9]: 21 nmol.100mg dry wt-1.min-1; Influx [4, 10]: 17 nmol.100mg dry wt-1.min-1
4 | NCc1ccccc1 [Benzylamine] | 155 nmol.100mg dry wt-1.min-1 | 2,02 cm-3.min.100 mg dry wt | 220 nmol.100mg dry wt-1.min-1 | 1.92 cm-3.min.100 mg dry wt | Influx [4, 11]: 221 nmol.100mg dry wt-1.min-1; Influx [4, 10]: 211 nmol.100mg dry wt-1.min-1
5 | CCCC(=O)O [Butyric] | 11 nmol.100mg dry wt-1.min-1 | – | 12 nmol.100mg dry wt-1.min-1 | – | –
6 | CCCCCCCCCC(=O)O [Decanoic, decanoic acid] | – | 2.93 cm-3.min.100 mg dry wt | – | 2.79 cm-3.min.100 mg dry wt | Influx Ileum [3, 12]: 158 nmol.100mg dry wt-1.min-1; Influx Jejunum [4, 12]: 361 nmol.100mg dry wt-1.min-1
7 | CCCCCCCCCCN [Decylamine] | – | – | – | 2.78 cm-3.min.100 mg dry wt | Influx Jejunum [4, 12]: 264 nmol.100mg dry wt-1.min-1
8 | O=C(O)C(c1ccccc1)c1ccccc1 [Diphenylacetic] | 7 nmol.100mg dry wt-1.min-1 | 2.95 cm-3.min.100 mg dry wt | 14 nmol.100mg dry wt-1.min-1 | 2.81 cm-3.min.100 mg dry wt | pKa ([1]; ref Ref. 6): 3.94
9 | CCCCCCC(=O)O [Heptanoic] | 50 nmol.100mg dry wt-1.min-1 | 2.43 cm-3.min.100 mg dry wt | 81 nmol.100mg dry wt-1.min-1 | 2.31 cm-3.min.100 mg dry wt | pKa ([1]; ref Ref. 6): 4.89
10 | CCCCCC(=O)O [Hexanoic, HEXANOIC ACID] | 29 nmol.100mg dry wt-1.min-1 | 2.24 cm-3.min.100 mg dry wt | 73 nmol.100mg dry wt-1.min-1 | 2.13 cm-3.min.100 mg dry wt | –
11 | CN1C(=O)NC(=O)C(C)(C2=CCCCC2)C1=O (centres unmarked) [Hexobarbital] | 327 nmol.100mg dry wt-1.min-1 | 3.00 cm-3.min.100 mg dry wt | 348 nmol.100mg dry wt-1.min-1 | 2.86 cm-3.min.100 mg dry wt | pKa ([1]; ref Bush (1)): 8.20
12 | CCC(=O)C(CC(C)N(C)C)(c1ccccc1)c1ccccc1 (centres unmarked) [Methadone] | 259 nmol.100mg dry wt-1.min-1 | 3.93 cm-3.min.100 mg dry wt | 272 nmol.100mg dry wt-1.min-1 | 3.74 cm-3.min.100 mg dry wt | –
13 | C=CCN1CC[C@]23c4c5ccc(O)c4O[C@H]2C(=O)CC[C@@]3(O)[C@H]1C5 [Naloxone] | 263 nmol.100mg dry wt-1.min-1 | – | 286 nmol.100mg dry wt-1.min-1 | 3.38 cm-3.min.100 mg dry wt | pKa ([1]; ref Taylor (11)): 6.93
14 | CCCCCCCC(=O)O [Octanoic, Octanoic acid] | 56 nmol.100mg dry wt-1.min-1 | 2.60 cm-3.min.100 mg dry wt | 147 nmol.100mg dry wt-1.min-1 | 2.47 cm-3.min.100 mg dry wt | Influx [4, 13]: 145; Influx ([4]; Table II, everted segments (region not stated), pH 7.9): 60; Influx ([4]; Table II, everted segments (region not stated), pH 8.4): 15
15 | CCCCC(=O)O [Pentanoic, Pentanoic acid] | 18 nmol.100mg dry wt-1.min-1 | 2.05 cm-3.min.100 mg dry wt | 22 nmol.100mg dry wt-1.min-1 | 1.95 cm-3.min.100 mg dry wt | Influx [4, 11]: 22 nmol.100mg dry wt-1.min-1; Influx [4, 8]: 18 nmol.100mg dry wt-1.min-1; Influx [4, 10]: 20 nmol.100mg dry wt-1.min-1
16 | CCC1(c2ccccc2)C(=O)NC(=O)NC1=O [Phenobarbital] | – | 2.95 cm-3.min.100 mg dry wt | 321 nmol.100mg dry wt-1.min-1 | 2.81 cm-3.min.100 mg dry wt | –
17 | O=C(O)Cc1ccccc1 [Phenylacetic, PHENYLACETIC ACID] | 15 nmol.100mg dry wt-1.min-1 | 2.27 cm-3.min.100 mg dry wt | 24 nmol.100mg dry wt-1.min-1 | 2.16 cm-3.min.100 mg dry wt | –
18 | CCC(=O)O [Propionic, propionic acid] | 9 nmol.100mg dry wt-1.min-1 | 1.61 cm-3.min.100 mg dry wt | 6 nmol.100mg dry wt-1.min-1 | 1.53 cm-3.min.100 mg dry wt | –
19 | NC1CCCCC1 [c-Hexylamine] | 6 nmol.100mg dry wt-1.min-1 | 2.05 cm-3.min.100 mg dry wt | 12 nmol.100mg dry wt-1.min-1 | 1.95 cm-3.min.100 mg dry wt | pKa ([1]; ref Ref. 6): 10.66; Influx [4, 11]: 9 nmol.100mg dry wt-1.min-1; Influx [4, 8]: 12 nmol.100mg dry wt-1.min-1; Influx [4, 9]: 9 nmol.100mg dry wt-1.min-1; Influx [4, 13]: 12; Ratio of influx and nonionized concentration ([4]; Table II, pH 7.4): 22; Ratio of influx and nonionized concentration ([4]; Table II, pH 7.9): 24
20 | CCCCCCCO [heptanol] | – | – | – | – | influx of heptanol with pH of incubation saline ([4]; preliminary experiments, range of pH values 7.5-8.5): constant
21 | CC(C)C(=O)O [iso-Butyric] | 13 nmol.100mg dry wt-1.min-1 | 1.84 cm-3.min.100 mg dry wt | 10 nmol.100mg dry wt-1.min-1 | 1.75 cm-3.min.100 mg dry wt | –
22 | CC(C)CC(=O)O [iso-Pentanoic] | 20 nmol.100mg dry wt-1.min-1 | – | 21 nmol.100mg dry wt-1.min-1 | – | Resistance Jejunum Empirical [5]: 4.76x 101; Resistance Jejunum Unstirred layer [5]: 1.95; Resistance Ileum Empirical [6]: 5.00x 101; Resistance Ileum Unstirred layer [6]: 2.05

From publication PMC2215728 (The Journal of General Physiology, 1978)
